Values joined by “and” are separate entries in the source; they are usually repeats but may differ in a detail not shown here. Equal values may be shown once. Where a name gives a salt, the structure may show the parent alone. Active and inactive are the calls of the source.

Data on 4 molecules can be found in ChEMBL document CHEMBL1201862, “PubChem BioAssay data set” (2004).

For assay [1], the target named is Sphingosine 1-phosphate receptor 2 (Homo sapiens, UniProt O95136). The assay is described as follows: Dose Response Cell Based Assay for Antagonists of the S1P2 Receptor. [Related pubchem assays: 856, 736 ]. Type of assay: functional.
Assay [2] has as its target E3 ubiquitin-protein ligase Mdm2 (Homo sapiens, UniProt Q00987). As to the kind of experiment: enhancers of MDM2-luciferase reporter signal, concentration-effect titration, project on inhibitors of MDM2 ubiquitin ligase, cellular assay, luminescent readout, 384-well plate format (AID 1394).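 Further: MDM2 E3 inhibitors raise luminescence so EC50 is for signal enhancement.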 The format is functional.
In assay [3] the target is Diphosphomevalonate decarboxylase (Streptococcus pneumoniae serotype 2 (strain D39 / NCTC 7466), UniProt Q9FD53). As to the kind of experiment: S. pneumoniae DPM-DC inhibition retest, confirmation, biochemical, cuvette format, coupled NADH fluorescence (AID 1028). The format is functional.
Assay [4] is described as follows: half-maximal inhibitory concentration for glucagon-like peptide-1 release, STC-1 cell line, dose-response (AID 1117345). Type of assay: functional, cell-based.
Assay [5] can be described thus: Glucagon-like peptide 1 release potency, NCI-H716 cell line, dose-response, half-maximal inhibitory concentration (AID 1117344). Type of assay: functional, cell-based.

Sequence of Sphingosine 1-phosphate receptor 2 (O95136 whole entry): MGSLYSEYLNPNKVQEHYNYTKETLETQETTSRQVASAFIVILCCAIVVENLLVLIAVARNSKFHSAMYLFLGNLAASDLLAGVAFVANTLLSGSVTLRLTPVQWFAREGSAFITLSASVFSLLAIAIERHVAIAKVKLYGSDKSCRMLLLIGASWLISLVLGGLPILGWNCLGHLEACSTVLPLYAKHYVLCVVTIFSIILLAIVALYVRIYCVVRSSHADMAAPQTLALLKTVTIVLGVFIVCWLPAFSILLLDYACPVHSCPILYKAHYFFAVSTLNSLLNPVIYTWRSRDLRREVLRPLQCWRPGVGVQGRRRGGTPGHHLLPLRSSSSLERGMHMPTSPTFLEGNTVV
Sequence of Diphosphomevalonate decarboxylase (Q9FD53 whole entry): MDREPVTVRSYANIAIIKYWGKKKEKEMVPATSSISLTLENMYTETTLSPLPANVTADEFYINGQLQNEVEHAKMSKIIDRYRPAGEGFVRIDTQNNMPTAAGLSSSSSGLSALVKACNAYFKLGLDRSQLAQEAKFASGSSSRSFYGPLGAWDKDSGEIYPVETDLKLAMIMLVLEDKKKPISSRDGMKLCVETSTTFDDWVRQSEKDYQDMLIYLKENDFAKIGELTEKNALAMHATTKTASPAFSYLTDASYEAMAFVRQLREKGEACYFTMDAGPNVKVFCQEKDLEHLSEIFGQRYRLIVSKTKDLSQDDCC
Sequence of E3 ubiquitin-protein ligase Mdm2 (Q00987 whole entry): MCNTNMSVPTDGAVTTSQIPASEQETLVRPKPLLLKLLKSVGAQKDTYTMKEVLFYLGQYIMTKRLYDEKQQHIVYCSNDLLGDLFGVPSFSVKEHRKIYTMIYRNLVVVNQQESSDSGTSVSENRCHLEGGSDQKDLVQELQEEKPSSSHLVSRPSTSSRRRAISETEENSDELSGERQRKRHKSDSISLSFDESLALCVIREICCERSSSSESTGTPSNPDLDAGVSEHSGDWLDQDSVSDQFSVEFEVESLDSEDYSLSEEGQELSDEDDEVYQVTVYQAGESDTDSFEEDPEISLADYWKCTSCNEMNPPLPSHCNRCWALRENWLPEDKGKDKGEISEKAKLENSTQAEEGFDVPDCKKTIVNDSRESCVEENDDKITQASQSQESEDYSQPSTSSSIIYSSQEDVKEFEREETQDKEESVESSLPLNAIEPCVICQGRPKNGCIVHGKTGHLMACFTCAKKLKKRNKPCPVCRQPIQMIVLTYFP

In the case of `O=C(Nc1ccc(F)cc1)c1sc2cc(C(F)(F)F)cnc2c1-c1cccs1`, in assay [1], the IC50 is 2.73 µM (active) and 2.06 µM (active).
As to `Cc1nn(-c2nnc(NCc3ccccc3)nn2)c(C)c1Br`, the EC50 in assay [2] is given as 13.3 µM (not active).
Turning to `O=C(NCCN1CCCC1)c1ccc(-n2sc3ccccc3c2=O)cc1`, in assay [3], the IC50 is 33 µM (active).
`CCN(CC)CCOC(=O)C(Cc1cccc2ccccc12)CC1CCCO1` (stereo not given) [NAFRONYL OXALATE]: the IC50 in assay [4] and in assay [5] was > 40 µM (inactive) each time.
